Measurements: ChEMBL document CHEMBL3132769, “Fragment growing to retain or alter the selectivity of anchored kinase hinge-binding fragments” (Medchemcomm, 2014)

Assays:
[1] = biological target: Ribosomal protein S6 kinase alpha-5 (Homo sapiens) (UniProt O75582); assay: Inhibition of human full length MSK1 expressed in baculovirus assessed as substrate phosphorylation using fluorescence-labelled peptides as substrate at 420 uM after 90 mins by microfluidic peptide phosphorylation assay
[2] = biological target: Insulin-like growth factor 1 receptor (Homo sapiens) (UniProt P08069); assay: Inhibition of human IGF1R catalytic domain expressed in baculovirus assessed as substrate phosphorylation using fluorescence-labelled peptides as substrate at 420 uM after 90 mins by microfluidic peptide phosphorylation assay
[3] = biological target: Protein kinase C eta type (Homo sapiens) (UniProt P24723); assay: Inhibition of human truncated PKC eta expressed in baculovirus assessed as substrate phosphorylation using fluorescence-labelled peptides as substrate at […] after 90 mins by microfluidic peptide phosphorylation assay
[4] = biological target: T1, Testis-specific serine/threonine-protein kinase 2 (Homo sapiens) (UniProt Q96PF2); conditions: 0.1 uM
T1 sequence (whole entry): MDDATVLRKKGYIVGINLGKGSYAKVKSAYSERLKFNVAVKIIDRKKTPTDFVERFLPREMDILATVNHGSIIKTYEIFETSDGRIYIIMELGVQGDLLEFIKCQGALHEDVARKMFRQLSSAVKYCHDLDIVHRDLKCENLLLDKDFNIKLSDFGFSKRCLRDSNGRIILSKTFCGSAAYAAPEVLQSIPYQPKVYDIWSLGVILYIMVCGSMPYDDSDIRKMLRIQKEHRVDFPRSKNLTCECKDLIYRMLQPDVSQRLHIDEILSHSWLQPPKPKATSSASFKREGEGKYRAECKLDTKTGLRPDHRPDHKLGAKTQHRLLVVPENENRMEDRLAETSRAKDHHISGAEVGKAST
Description: Inhibition of human full length TSSK2 expressed in baculovirus assessed as substrate phosphorylation using fluorescence-labelled peptides as substrate at 0.1 uM after 90 mins by microfluidic peptide phosphorylation assay

[5] = biological target: Cyclin-dependent kinase 2 (Homo sapiens) (UniProt P24941); assay: Inhibition of human full length CDK2 expressed in baculovirus assessed as substrate phosphorylation using fluorescence-labelled peptides as substrate at 0.1 uM after 90 mins by microfluidic peptide phosphorylation assay
[6] = biological target: Serine/threonine-protein kinase MARK2 (Homo sapiens) (UniProt Q7KZI7); assay: Inhibition of human full length MARK2 expressed in baculovirus assessed as substrate phosphorylation using fluorescence-labelled peptides as substrate at 0.1 uM after 90 mins by microfluidic peptide phosphorylation assay
[7] = biological target: T2, Testis-specific serine/threonine-protein kinase 1 (Homo sapiens) (UniProt Q9BXA7); assay: Inhibition of human full length TSSK1 expressed in baculovirus assessed as substrate phosphorylation using fluorescence-labelled peptides as substrate at 9 uM after 90 mins by microfluidic peptide phosphorylation assay
T2 sequence (whole entry): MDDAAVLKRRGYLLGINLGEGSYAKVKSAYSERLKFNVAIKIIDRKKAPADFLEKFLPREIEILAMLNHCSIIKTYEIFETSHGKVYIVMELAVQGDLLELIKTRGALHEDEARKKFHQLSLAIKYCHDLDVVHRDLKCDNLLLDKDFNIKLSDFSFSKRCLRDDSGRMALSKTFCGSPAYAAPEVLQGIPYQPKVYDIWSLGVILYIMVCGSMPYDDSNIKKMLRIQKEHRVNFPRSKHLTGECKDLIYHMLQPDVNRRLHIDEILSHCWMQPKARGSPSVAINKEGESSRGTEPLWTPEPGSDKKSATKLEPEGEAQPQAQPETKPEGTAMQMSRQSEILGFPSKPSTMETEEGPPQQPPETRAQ

[8] = biological target: Tyrosine-protein kinase Lyn (Homo sapiens) (UniProt P07948); assay: Inhibition of human full length LYN expressed in baculovirus assessed as substrate phosphorylation using fluorescence-labelled peptides as substrate at 9 uM after 90 mins by microfluidic peptide phosphorylation assay
[9] = biological target: Cyclin-dependent kinase 2 (Homo sapiens) (UniProt P24941); assay: Inhibition of human full length CDK2 expressed in baculovirus assessed as substrate phosphorylation using fluorescence-labelled peptides as substrate at 70 uM after 90 mins by microfluidic peptide phosphorylation assay
[10] = biological target: Fibroblast growth factor receptor 4 (Homo sapiens) (UniProt P22455); assay: Inhibition of human FGFR4 catalytic domain expressed in baculovirus assessed as substrate phosphorylation using fluorescence-labelled peptides as substrate at 70 uM after 90 mins by microfluidic peptide phosphorylation assay
[11] = tested on: Tyrosine-protein kinase ABL1 (Homo sapiens), P00519 [Q252H]; assay: Inhibition of human truncated ABL Q252H mutant expressed in baculovirus assessed as substrate phosphorylation using fluorescence-labelled peptides as substrate at 95 uM after 90 mins by microfluidic peptide phosphorylation assay
[12] = biological target: Mitogen-activated protein kinase kinase kinase kinase 4 (Homo sapiens) (UniProt O95819); assay: Inhibition of human HGK catalytic domain expressed in baculovirus assessed as substrate phosphorylation using fluorescence-labelled peptides as substrate at 95 uM after 90 mins by microfluidic peptide phosphorylation assay
[13] = tested on: Tyrosine-protein kinase ABL1 (Homo sapiens), P00519 [H396P]; assay: Inhibition of human truncated ABL H396P mutant expressed in baculovirus assessed as substrate phosphorylation using fluorescence-labelled peptides as substrate at 95 uM after 90 mins by microfluidic peptide phosphorylation assay
[14] = biological target: T3, Serine/threonine-protein kinase BRSK2 (Homo sapiens) (UniProt Q8IWQ3); assay: Inhibition of human truncated BRSK2 expressed in baculovirus assessed as substrate phosphorylation using fluorescence-labelled peptides as substrate at 95 uM after 90 mins by microfluidic peptide phosphorylation assay
T3 sequence (whole entry): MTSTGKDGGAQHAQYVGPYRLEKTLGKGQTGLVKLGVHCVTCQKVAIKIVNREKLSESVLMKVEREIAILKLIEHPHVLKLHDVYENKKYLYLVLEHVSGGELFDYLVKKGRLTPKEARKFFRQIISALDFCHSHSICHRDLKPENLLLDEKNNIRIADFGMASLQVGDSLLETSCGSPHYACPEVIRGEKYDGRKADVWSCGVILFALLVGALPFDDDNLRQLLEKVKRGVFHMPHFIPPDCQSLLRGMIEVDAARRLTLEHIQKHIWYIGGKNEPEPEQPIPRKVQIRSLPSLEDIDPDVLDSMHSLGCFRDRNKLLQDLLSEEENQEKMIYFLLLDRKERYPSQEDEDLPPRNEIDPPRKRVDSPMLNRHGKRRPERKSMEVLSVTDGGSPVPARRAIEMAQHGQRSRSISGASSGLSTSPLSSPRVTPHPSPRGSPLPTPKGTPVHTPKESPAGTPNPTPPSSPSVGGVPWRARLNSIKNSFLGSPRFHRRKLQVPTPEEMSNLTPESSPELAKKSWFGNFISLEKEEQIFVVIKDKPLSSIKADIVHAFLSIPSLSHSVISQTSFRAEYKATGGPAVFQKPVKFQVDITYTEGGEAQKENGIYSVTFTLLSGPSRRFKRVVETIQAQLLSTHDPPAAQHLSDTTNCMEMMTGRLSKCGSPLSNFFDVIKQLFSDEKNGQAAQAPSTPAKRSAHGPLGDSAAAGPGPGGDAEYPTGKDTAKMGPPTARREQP

[15] = biological target: Proto-oncogene tyrosine-protein kinase Src (Homo sapiens) (UniProt P12931); assay: Inhibition of human full length SRC expressed in baculovirus assessed as substrate phosphorylation using fluorescence-labelled peptides as substrate at 2 uM after 90 mins by microfluidic peptide phosphorylation assay
Proto-oncogene tyrosine-protein kinase Src (Homo sapiens), sequence (P12931 2-536 limits assumed): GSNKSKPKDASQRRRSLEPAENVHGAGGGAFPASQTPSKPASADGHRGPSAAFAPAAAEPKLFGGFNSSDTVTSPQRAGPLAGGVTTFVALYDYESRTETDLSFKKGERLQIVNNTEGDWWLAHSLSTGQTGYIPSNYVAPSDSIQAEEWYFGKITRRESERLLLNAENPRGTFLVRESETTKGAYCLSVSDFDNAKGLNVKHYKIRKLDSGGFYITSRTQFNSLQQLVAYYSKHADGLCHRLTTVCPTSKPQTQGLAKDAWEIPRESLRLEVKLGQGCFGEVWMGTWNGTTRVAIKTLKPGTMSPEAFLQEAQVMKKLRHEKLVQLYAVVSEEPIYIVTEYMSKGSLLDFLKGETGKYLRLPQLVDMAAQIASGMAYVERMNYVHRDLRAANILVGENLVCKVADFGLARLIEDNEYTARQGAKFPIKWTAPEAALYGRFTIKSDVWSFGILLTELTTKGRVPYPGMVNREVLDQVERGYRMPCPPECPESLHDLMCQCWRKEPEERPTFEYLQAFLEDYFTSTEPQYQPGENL

Mitogen-activated protein kinase kinase kinase kinase 4 (Homo sapiens), sequence (O95819 2-1239 limits assumed): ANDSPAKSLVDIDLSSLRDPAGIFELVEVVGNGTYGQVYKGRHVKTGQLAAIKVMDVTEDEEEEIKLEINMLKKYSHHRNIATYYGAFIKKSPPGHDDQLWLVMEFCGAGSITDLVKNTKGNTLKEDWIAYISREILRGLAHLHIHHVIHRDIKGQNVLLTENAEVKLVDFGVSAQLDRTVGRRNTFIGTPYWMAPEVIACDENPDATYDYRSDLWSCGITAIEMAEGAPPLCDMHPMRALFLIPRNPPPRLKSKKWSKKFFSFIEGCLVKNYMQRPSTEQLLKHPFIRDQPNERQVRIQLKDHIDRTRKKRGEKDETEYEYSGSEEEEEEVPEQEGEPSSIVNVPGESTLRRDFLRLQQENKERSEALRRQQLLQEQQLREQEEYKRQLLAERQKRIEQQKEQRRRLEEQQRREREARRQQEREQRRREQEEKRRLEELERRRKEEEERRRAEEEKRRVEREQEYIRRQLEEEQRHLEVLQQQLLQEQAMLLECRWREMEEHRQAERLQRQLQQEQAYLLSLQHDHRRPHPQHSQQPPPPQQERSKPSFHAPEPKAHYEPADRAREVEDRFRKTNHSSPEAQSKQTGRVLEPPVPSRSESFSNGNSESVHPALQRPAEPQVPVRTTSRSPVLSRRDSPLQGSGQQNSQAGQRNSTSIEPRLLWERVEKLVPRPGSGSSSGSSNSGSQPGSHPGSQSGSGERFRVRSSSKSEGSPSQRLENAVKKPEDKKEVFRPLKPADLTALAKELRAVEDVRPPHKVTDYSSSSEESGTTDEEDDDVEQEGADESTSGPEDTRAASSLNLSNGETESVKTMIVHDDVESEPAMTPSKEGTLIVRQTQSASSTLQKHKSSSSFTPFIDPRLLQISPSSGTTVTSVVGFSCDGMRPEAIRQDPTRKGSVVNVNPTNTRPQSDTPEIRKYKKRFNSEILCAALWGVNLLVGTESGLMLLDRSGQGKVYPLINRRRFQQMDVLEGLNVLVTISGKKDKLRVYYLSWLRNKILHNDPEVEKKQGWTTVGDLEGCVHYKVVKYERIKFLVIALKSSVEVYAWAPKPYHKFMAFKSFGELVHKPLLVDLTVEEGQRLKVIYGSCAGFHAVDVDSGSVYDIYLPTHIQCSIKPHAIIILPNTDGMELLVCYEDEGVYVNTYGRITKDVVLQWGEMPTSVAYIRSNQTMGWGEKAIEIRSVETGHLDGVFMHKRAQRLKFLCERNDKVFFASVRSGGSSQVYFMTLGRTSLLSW
Tyrosine-protein kinase Lyn (Homo sapiens), sequence (P07948 2-512 limits assumed): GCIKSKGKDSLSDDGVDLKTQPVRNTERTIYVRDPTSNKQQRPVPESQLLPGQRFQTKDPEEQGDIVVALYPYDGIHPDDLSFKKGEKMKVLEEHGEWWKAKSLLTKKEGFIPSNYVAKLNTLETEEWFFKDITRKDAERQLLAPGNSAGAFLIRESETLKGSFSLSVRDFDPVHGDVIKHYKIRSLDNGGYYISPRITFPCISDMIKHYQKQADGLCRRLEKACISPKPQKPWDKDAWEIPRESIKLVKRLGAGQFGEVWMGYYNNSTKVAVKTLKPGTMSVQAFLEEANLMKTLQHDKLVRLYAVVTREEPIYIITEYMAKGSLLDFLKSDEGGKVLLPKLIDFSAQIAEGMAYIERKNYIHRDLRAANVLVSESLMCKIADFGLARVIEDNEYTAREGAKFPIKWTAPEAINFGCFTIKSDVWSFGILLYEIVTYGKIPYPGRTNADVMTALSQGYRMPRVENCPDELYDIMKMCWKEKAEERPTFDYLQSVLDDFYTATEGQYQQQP
Ribosomal protein S6 kinase alpha-5 (Homo sapiens), sequence (O75582 whole entry, looked up, the tested form may be a part): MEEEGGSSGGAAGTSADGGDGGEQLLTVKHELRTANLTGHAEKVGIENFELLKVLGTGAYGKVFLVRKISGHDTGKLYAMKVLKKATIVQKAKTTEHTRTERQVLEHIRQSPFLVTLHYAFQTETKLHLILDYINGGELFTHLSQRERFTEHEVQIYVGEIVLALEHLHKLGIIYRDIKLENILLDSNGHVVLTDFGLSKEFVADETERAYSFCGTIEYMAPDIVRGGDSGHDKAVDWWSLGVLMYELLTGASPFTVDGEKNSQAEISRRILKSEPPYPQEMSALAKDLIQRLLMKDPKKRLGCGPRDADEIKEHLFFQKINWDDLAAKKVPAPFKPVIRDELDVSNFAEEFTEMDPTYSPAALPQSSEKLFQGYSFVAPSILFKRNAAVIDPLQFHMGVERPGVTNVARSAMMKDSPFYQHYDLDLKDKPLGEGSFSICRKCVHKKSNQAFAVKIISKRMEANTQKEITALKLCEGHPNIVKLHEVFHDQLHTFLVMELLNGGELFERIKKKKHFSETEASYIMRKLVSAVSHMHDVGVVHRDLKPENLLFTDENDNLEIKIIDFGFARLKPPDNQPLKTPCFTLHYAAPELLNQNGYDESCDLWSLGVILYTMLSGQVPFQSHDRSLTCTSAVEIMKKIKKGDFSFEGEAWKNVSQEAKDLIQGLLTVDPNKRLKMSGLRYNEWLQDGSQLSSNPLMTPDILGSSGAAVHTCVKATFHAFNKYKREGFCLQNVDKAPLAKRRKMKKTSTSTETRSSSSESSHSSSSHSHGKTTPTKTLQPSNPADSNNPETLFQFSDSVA
Serine/threonine-protein kinase MARK2 (Homo sapiens), sequence (Q7KZI7 whole entry): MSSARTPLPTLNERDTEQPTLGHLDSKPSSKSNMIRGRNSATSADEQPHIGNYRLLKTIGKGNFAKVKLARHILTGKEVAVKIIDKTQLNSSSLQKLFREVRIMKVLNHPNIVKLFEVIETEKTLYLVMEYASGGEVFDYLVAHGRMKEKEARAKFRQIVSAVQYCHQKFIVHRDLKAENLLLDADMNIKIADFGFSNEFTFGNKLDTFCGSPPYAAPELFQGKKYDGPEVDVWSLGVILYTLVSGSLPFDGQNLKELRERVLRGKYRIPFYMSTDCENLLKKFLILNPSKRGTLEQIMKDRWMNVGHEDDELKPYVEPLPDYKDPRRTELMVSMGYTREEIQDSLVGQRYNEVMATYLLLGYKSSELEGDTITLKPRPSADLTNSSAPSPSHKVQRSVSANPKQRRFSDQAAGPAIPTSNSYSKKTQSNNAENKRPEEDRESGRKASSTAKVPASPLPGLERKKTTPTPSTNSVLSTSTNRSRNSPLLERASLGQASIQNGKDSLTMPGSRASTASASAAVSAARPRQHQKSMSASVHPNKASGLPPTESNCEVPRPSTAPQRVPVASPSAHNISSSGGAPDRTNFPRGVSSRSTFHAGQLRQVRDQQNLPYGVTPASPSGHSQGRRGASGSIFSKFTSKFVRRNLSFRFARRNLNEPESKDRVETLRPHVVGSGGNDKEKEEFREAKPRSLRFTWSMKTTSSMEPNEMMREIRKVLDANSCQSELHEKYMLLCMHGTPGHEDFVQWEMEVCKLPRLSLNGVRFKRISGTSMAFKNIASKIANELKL
Protein kinase C eta type (Homo sapiens), sequence (P24723 whole entry, the tested form may be a part): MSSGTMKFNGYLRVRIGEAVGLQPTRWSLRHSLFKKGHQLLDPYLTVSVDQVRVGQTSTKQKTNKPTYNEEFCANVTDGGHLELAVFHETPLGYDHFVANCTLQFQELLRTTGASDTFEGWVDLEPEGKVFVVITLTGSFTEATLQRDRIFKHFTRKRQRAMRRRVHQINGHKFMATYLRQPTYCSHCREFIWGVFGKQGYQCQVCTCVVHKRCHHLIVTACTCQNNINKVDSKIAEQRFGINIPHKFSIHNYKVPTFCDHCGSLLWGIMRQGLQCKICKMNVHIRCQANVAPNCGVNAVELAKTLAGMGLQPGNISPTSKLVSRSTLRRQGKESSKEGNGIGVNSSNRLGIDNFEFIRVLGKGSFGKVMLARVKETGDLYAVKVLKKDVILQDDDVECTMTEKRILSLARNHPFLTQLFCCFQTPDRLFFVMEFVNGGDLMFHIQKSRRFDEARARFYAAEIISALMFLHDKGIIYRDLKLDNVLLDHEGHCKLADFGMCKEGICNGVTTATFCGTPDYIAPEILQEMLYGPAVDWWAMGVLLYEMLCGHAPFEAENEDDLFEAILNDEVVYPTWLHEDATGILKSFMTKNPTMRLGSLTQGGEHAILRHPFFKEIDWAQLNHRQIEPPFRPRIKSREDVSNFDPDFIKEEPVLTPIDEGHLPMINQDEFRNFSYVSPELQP

c1nc(N2CCOCC2)c2nc[nH]c2n1
inhibition [1]: 78.5% | inhibition [2]: 15%

COC(=O)c1cnc(Nc2cnc(C#N)cn2)cc1NCC1CCNCC1
inhibition [3]: 1%

C[C@H](CN(C)C)Oc1nc(Nc2cc3cccc(Cl)c3cn2)cnc1C#N
inhibition [4]: 0% | inhibition [5]: 1.5% | inhibition [6]: 2%

NCC1CN(c2ncnc3[nH]c4cnccc4c23)CCO1 (stereo not given)
inhibition [7]: 41.5% | inhibition [8]: 42%

CNCc1ccc(-c2ncnc3[nH]cnc23)cc1
inhibition [9]: 34% | inhibition [10]: 11.5%

NCCc1ccc(-c2ncnc3[nH]cnc23)cc1
inhibition [11]: 67.5% | inhibition [12]: 39.5% | inhibition [13]: 69.5% | inhibition [14]: 40%

NC1CCN(c2ncnc3[nH]ccc23)CC1
inhibition [15]: 0%
